Data: ChEMBL document CHEMBL6120975 (2024)
Active and inactive are the calls of the source. No cut-off for these calls is given here. Where a SMILES comes first, the peptide text is derived from it. [ ]: non-standard residue; d: D form. The star is where a group is joined. X3 = NCCOCCOCCOCCOCCOCCOCCOCCOCCCC(=O)*; Stearoyl = CCCCCCCCCCCCCCCCCC(=O)*; Palmitoyl = CCCCCCCCCCCCCCCC(=O)*; X1 = NCCOCCOCCOCCOCCOCCOCCCC(=O)*; X2 = NCCOCCOCCOCCOCCCC(=O)*; Sar = CNCC(=O)O

Experiments:
[1] = Stability in human serum measured upto 24 hrs; format: ADME, cell-free
[2] = molecular target: T1, Neuronal acetylcholine receptor; alpha9/alpha10 (Homo sapiens) (UniProt Q9UGM1+Q9GZZ6); experiment: Inhibition of human alpha9alpha10 nAChR expressed in acetylcholine-induced Xenopus laevis oocytes assessed as inhibition of acetylcholine-induced current at 30 nM incubated for 5 mins by two electrode voltage-clamp assay; format: cell-based; conditions: Oocyte
[3] = molecular target: T2, Voltage-dependent N-type calcium channel subunit alpha-1B (Homo sapiens, UniProt Q00975); experiment: Inhibition of human eGFP tagged Cav2.2 channel transfected in HEK293T cells co-expressed with human GABAB receptor assessed as inhibition of Cav2.2-mediated Ba2+ current at 1 uM by whole-cell patch clamp assay; format: cell-based
Target sequence in this assay (Q00975 whole entry, looked up): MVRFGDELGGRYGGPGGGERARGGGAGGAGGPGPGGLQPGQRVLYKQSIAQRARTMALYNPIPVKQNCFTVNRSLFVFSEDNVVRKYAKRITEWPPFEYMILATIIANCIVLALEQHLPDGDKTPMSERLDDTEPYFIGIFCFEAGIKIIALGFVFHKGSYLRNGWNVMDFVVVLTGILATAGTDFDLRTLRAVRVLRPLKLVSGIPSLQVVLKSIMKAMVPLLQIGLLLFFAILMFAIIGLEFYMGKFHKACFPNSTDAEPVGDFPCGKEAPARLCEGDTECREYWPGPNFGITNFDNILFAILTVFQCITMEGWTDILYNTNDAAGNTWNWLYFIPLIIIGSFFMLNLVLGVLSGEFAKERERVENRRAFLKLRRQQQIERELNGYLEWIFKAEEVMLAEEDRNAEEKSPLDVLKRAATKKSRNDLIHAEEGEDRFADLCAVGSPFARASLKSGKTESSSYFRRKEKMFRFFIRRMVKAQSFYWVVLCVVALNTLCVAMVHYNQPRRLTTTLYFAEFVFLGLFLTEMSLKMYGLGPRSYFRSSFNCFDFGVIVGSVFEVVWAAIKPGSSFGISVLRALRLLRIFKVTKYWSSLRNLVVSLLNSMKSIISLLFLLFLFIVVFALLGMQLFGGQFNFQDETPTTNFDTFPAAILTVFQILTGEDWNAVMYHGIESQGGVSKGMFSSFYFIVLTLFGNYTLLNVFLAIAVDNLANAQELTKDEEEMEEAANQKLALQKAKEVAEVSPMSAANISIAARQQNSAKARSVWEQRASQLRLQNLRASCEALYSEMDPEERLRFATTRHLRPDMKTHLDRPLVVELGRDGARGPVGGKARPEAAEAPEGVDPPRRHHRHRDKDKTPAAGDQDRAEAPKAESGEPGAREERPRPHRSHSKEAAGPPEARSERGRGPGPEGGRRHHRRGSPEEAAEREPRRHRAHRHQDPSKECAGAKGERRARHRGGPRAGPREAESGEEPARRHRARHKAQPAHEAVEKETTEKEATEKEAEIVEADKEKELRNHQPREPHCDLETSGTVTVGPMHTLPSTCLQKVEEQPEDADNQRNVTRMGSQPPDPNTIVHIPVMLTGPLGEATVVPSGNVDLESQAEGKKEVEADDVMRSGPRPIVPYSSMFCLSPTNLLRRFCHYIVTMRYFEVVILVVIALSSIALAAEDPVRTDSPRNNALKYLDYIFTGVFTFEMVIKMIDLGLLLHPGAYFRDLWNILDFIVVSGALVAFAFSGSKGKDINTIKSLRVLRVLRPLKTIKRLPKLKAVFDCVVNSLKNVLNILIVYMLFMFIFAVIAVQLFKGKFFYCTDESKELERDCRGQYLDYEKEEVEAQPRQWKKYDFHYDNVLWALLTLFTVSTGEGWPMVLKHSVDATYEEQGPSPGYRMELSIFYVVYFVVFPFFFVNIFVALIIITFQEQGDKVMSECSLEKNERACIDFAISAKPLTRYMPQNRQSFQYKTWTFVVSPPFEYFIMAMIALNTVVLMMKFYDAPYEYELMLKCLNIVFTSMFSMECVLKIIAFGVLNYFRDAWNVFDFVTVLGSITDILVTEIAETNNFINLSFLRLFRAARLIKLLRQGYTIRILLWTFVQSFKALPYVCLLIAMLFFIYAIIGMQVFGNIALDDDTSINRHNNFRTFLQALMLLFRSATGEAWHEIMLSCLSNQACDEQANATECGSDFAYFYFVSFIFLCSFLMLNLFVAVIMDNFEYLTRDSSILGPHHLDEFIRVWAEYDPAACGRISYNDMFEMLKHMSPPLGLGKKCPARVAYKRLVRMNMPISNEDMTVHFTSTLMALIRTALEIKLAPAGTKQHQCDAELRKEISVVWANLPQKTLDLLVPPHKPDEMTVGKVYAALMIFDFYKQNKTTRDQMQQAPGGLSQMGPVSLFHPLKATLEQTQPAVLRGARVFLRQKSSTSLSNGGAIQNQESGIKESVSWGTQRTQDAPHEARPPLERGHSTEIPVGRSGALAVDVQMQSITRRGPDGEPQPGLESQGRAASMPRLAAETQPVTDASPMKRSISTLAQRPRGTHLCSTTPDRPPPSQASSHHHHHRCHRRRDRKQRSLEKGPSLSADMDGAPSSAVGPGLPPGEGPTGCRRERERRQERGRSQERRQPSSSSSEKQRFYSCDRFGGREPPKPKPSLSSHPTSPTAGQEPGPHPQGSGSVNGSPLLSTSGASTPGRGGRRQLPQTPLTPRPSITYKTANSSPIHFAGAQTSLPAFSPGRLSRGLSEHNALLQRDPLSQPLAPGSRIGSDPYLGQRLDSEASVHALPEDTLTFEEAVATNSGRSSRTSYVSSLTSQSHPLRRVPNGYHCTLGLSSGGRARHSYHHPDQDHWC

[4] = molecular target: T2, Voltage-dependent N-type calcium channel subunit alpha-1B; experiment: Inhibition of human eGFP tagged Cav2.2 channel transfected in HEK293T cells co-expressed with human GABAB receptor assessed as inhibition of Cav2.2-mediated Ba2+ current at 100 uM by whole-cell patch clamp assay; format: cell-based
Target sequence in this assay (Q00975 whole entry, looked up): as above

[5] = Stability in human plasma assessed as half life; format: ADME, cell-free
[6] = Stability in human serum assessed as parent compound remaining measured after 24 hrs; format: ADME, cell-free
[7] = molecular target: Neuronal acetylcholine receptor; alpha9/alpha10 (Homo sapiens, UniProt Q9GZZ6+Q9UGM1); experiment: Inhibition of human alpha9alpha10 nAChR expressed in acetylcholine-induced Xenopus laevis oocytes assessed as inhibition of acetylcholine-induced current incubated for 5 mins by two electrode voltage-clamp assay; format: cell-based, Oocyte
Rattus norvegicus [8] = experiment: Antinociceptive activity in Chronic constriction injury rat model assessed as reduction in pain at 250 microg/kg, IM administration and measured after 2 hrs; format: functional, organism-based; conditions: dose 250.0 µg/kg
[9] = molecular target: Neuronal acetylcholine receptor subunit alpha-7 (Homo sapiens, UniProt P36544); experiment: Inhibition of human alpha7 nAChR expressed in acetylcholine-induced Xenopus laevis oocytes assessed as inhibition of acetylcholine-induced current incubated for 5 mins by two electrode voltage-clamp assay; format: cell-based, Oocyte
[10] = molecular target: T2, Voltage-dependent N-type calcium channel subunit alpha-1B; experiment: Inhibition of human eGFP tagged Cav2.2 channel transfected in HEK293T cells co-expressed with human GABAB receptor assessed as inhibition of Cav2.2-mediated Ba2+ current by whole-cell patch clamp assay; format: cell-based
Target sequence in this assay (Q00975 whole entry): as the sequence (Q00975 whole entry, looked up) above

[11] = molecular target: T2, Voltage-dependent N-type calcium channel subunit alpha-1B; experiment: Inhibition of human eGFP tagged Cav2.2 channel transfected in HEK293T cells co-expressed with human GABAB receptor assessed as inhibition of Cav2.2-mediated Ba2+ current at 100 uM by whole-cell patch clamp assay relative to control; format: cell-based
Target sequence in this assay (Q00975 whole entry, looked up): as above

[12] = molecular target: Neuronal acetylcholine receptor; alpha3/beta4 (Homo sapiens) (UniProt P30926+P32297); experiment: Inhibition of human alpha3beta4 nAChR expressed in acetylcholine-induced Xenopus laevis oocytes assessed as inhibition of acetylcholine-induced current at 100 nM incubated for 5 mins by two electrode voltage-clamp assay; format: cell-based; conditions: Oocyte
[13] = molecular target: Neuronal acetylcholine receptor; alpha3/beta2 (Homo sapiens) (UniProt P17787+P32297); experiment: Inhibition of human alpha3beta2 nAChR expressed in acetylcholine-induced Xenopus laevis oocytes assessed as inhibition of acetylcholine-induced current at 100 nM incubated for 5 mins by two electrode voltage-clamp assay; format: cell-based; conditions: Oocyte
[14] = molecular target: Neuronal acetylcholine receptor; alpha4/beta4 (Homo sapiens) (UniProt P30926+P43681); experiment: Inhibition of human alpha4beta4 nAChR expressed in acetylcholine-induced Xenopus laevis oocytes assessed as inhibition of acetylcholine-induced current at 100 nM incubated for 5 mins by two electrode voltage-clamp assay; format: cell-based; conditions: Oocyte
[15] = molecular target: T1, Neuronal acetylcholine receptor; alpha9/alpha10 (Homo sapiens); experiment: Inhibition of human alpha9alpha10 nAChR expressed in acetylcholine-induced Xenopus laevis oocytes assessed as inhibition of acetylcholine-induced current at 100 nM incubated for 5 mins by two electrode voltage-clamp assay; format: cell-based; conditions: Oocyte
[16] = molecular target: Neuronal acetylcholine receptor; alpha4/beta2 (Homo sapiens) (UniProt P17787+P43681); experiment: Inhibition of human alpha4beta2 nAChR expressed in acetylcholine-induced Xenopus laevis oocytes assessed as inhibition of acetylcholine-induced current at 100 nM incubated for 5 mins by two electrode voltage-clamp assay; format: cell-based; conditions: Oocyte
Rattus norvegicus [17] = experiment: Antinociception activity in Oxaliplatin-induced cold allodynia in rat model assessed as analgesic effect at 250 microg/kg, sc measured after 1 hr; format: functional, organism-based; conditions: dose 250.0 µg/kg
Rattus norvegicus [18] = experiment: Antinociception activity in Oxaliplatin-induced cold allodynia in rat model assessed as analgesic effect at 250 microg/kg, sc measured after 4 to 8 hr; format: functional, organism-based; conditions: dose 250.0 µg/kg, time 4-8 hrs
Rattus norvegicus [19] = experiment: Antinociception activity in Oxaliplatin-induced cold allodynia in rat model assessed as analgesic effect at 250 microg/kg, iv measured after 1 to 12 hr; format: functional, organism-based; conditions: dose 250.0 µg/kg, time 1-12 hrs

Chain of Neuronal acetylcholine receptor; alpha9/alpha10 (Q9UGM1 whole entry): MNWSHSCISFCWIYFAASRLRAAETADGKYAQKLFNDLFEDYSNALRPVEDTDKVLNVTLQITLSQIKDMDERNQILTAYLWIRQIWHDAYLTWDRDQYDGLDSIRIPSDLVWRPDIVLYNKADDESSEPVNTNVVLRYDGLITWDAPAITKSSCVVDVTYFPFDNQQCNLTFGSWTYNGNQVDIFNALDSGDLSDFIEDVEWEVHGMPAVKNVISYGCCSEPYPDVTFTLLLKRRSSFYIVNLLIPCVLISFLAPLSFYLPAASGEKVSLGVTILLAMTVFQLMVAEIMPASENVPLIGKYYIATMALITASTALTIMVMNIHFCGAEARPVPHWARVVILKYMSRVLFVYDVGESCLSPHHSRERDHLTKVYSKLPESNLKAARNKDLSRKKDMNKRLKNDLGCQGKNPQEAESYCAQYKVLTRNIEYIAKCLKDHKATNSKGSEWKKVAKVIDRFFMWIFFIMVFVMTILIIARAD
Chain of Neuronal acetylcholine receptor; alpha9/alpha10 (Q9GZZ6 whole entry): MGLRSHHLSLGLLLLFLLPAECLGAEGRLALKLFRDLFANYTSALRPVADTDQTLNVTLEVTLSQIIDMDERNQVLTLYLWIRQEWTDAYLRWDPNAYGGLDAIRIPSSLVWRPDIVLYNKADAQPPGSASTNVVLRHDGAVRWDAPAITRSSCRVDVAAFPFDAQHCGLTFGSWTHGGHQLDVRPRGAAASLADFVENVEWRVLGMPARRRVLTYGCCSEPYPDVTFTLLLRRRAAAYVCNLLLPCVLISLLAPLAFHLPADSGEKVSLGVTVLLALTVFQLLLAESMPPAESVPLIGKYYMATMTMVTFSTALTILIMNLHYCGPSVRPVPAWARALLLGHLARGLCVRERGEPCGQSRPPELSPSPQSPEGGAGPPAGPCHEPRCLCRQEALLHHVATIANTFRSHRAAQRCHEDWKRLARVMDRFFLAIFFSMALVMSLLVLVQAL
Chain of Neuronal acetylcholine receptor subunit alpha-7 (P36544 whole entry): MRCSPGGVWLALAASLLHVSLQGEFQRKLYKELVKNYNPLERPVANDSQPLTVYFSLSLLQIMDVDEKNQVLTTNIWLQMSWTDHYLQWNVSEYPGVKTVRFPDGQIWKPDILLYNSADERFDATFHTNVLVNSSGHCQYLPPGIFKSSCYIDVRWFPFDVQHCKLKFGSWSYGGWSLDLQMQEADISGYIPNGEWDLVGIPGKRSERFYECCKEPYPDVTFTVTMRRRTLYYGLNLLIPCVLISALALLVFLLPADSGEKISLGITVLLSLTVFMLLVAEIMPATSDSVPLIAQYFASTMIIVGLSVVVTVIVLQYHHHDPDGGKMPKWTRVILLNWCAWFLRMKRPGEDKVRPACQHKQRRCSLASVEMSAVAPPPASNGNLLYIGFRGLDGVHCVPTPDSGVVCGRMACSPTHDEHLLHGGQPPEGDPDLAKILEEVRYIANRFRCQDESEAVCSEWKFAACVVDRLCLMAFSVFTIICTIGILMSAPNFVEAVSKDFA

With `CCCCCCCCCCCCCCCCCC(=O)NCC(=O)N[C@@H](CCCNC(=N)N)C(=O)N[C@@H](Cc1ccc(O)cc1)C(=O)N[C@@H](CCCNC(=N)N)C(=O)N[C@@H](CO)C(=O)N1CCC[C@H]1C(=O)N[C@@H](Cc1ccc(O)cc1)C(=O)N[C@@H](CC(=O)O)C(=O)N[C@@H](CCCNC(=N)N)C(=O)N[C@@H](CCCNC(=N)N)C(=O)N[C@@H](CCCNC(=N)N)C(=O)N[C@@H](CCCNC(=N)N)C(=O)N[C@@H](Cc1ccc(O)cc1)C(=O)N[C@@H](CCCNC(=N)N)C(=O)N[C@@H](CCCNC(=N)N)C(=O)N[C@H](C(=O)N[C@H](C(=O)N[C@@H](CC(=O)O)C(N)=O)[C@@H](C)O)[C@@H](C)CC` (Stearoyl-GRYRSPYDRRRRYRRITD-NH2) the Stability [1] was “Stable”, the inhibition [2] was “inactive” and the inhibition [3] was “Active; Compound Showed Weak Inhibitory Activity”. For the same compound, the inhibition [4] was “Active; Compound Showed Minimal Activity”.

H-GRYRSPYDRRRRYRRITD-NH2 showed a half-life [5] of less than 30 min.

For `CCCCCCCCCCCCCCCC(=O)NCC(=O)N[C@@H](CCCNC(=N)N)C(=O)N[C@@H](Cc1ccc(O)cc1)C(=O)N[C@@H](CCCNC(=N)N)C(=O)N[C@@H](CO)C(=O)N1CCC[C@H]1C(=O)N[C@@H](Cc1ccc(O)cc1)C(=O)N[C@@H](CC(=O)O)C(=O)N[C@@H](CCCNC(=N)N)C(=O)N[C@@H](CCCNC(=N)N)C(=O)N[C@@H](CCCNC(=N)N)C(=O)N[C@@H](CCCNC(=N)N)C(=O)N[C@@H](Cc1ccc(O)cc1)C(=O)N[C@@H](CCCNC(=N)N)C(=O)N[C@@H](CCCNC(=N)N)C(=O)N[C@H](C(=O)N[C@H](C(=O)N[C@@H](CC(=O)O)C(N)=O)[C@@H](C)O)[C@@H](C)CC` (Palmitoyl-GRYRSPYDRRRRYRRITD-NH2), the Stability [1] was “Stable”, the inhibition [2] was “inactive” and the inhibition [3] was “Active; Compound Showed Weak Inhibitory Activity”. For the same compound, the inhibition [4] was “Active; Compound Showed Minimal Activity”.

With `CC[C@H](C)[C@H](NC(=O)[C@H](CCCNC(=N)N)NC(=O)[C@H](CCCNC(=N)N)NC(=O)[C@H](Cc1ccc(O)cc1)NC(=O)[C@H](CCCNC(=N)N)NC(=O)[C@H](CCCNC(=N)N)NC(=O)[C@H](CCCNC(=N)N)NC(=O)[C@H](CCCNC(=N)N)NC(=O)[C@H](CC(=O)O)NC(=O)[C@H](Cc1ccc(O)cc1)NC(=O)[C@@H]1CCCN1C(=O)[C@H](CO)NC(=O)[C@H](CCCNC(=N)N)NC(=O)[C@H](Cc1ccc(O)cc1)NC(=O)[C@H](CCCNC(=N)N)NC(=O)CNC(=O)CCCOCCOCCOCCOCCOCCOCCOCCOCCN)C(=O)N[C@H](C(=O)N[C@@H](CC(=O)O)C(N)=O)[C@@H](C)O` (X3-GRYRSPYDRRRRYRRITD-NH2) the remaining at 24 h [6] was greater than 80%, the inhibition [2] was “Active” and the inhibition [3] was “Active; Compound Showed Weak Inhibitory Activity”. The IC50 [7] was 11.8 nM, the Activity (Rattus norvegicus [8]) was “inactive” and the inhibition [4] was “Active; Compound Showed Minimal Activity”.

With `CC[C@H](C)[C@H](NC(=O)[C@H](CCCNC(=N)N)NC(=O)[C@H](CCCNC(=N)N)NC(=O)[C@H](Cc1ccc(O)cc1)NC(=O)[C@H](CCCNC(=N)N)NC(=O)[C@H](CCCNC(=N)N)NC(=O)[C@H](CCCNC(=N)N)NC(=O)[C@H](CCCNC(=N)N)NC(=O)[C@H](CC(=O)O)NC(=O)[C@H](Cc1ccc(O)cc1)NC(=O)[C@@H]1CCCN1C(=O)[C@H](CO)NC(=O)[C@H](CCCNC(=N)N)NC(=O)[C@H](Cc1ccc(O)cc1)NC(=O)[C@H](CCCNC(=N)N)NC(=O)CNC(=O)CCCOCCOCCOCCOCCN)C(=O)N[C@H](C(=O)N[C@@H](CC(=O)O)C(N)=O)[C@@H](C)O` (X2-GRYRSPYDRRRRYRRITD-NH2) the remaining at 24 h [6] was greater than 80%, the inhibition [2] was “Active” and the inhibition [3] was “Active; Compound Showed Weak Inhibitory Activity”. For the same compound, the IC50 [7] was 7.8 nM, the Activity (Rattus norvegicus [8]) was “inactive” and the inhibition [4] was “Active; Compound Showed Minimal Activity”.

In the case of `CC[C@H](C)[C@H](NC(=O)[C@H](CCCNC(=N)N)NC(=O)[C@H](CCCNC(=N)N)NC(=O)[C@H](Cc1ccc(O)cc1)NC(=O)[C@H](CCCNC(=N)N)NC(=O)[C@H](CCCNC(=N)N)NC(=O)[C@H](CCCNC(=N)N)NC(=O)[C@H](CCCNC(=N)N)NC(=O)[C@H](CC(=O)O)NC(=O)[C@H](Cc1ccc(O)cc1)NC(=O)[C@@H]1CCCN1C(=O)[C@H](CO)NC(=O)[C@H](CCCNC(=N)N)NC(=O)[C@H](Cc1ccc(O)cc1)NC(=O)[C@H](CCCNC(=N)N)NC(=O)CNC)C(=O)N[C@H](C(=O)N[C@@H](CC(=O)O)C(N)=O)[C@@H](C)O` (H-[Sar]RYRSPYDRRRRYRRITD-NH2), the inhibition [2] is reported as “Active”, the IC50 [7] is reported as 14.2 nM and the IC50 [9] is reported as 121 nM. For the same compound, the IC50 [10] was 7800 nM, the inhibition [11] was 100% and the inhibition [12] was “inactive”. For the same compound, the inhibition [13] was “inactive”, the inhibition [14] was “inactive” and the inhibition [15] was “inactive”. The inhibition [16] was “Active”, the Activity (Rattus norvegicus [17]) was “inactive” and the Activity (Rattus norvegicus [18]) was “Active”. The Activity (Rattus norvegicus [19]) was “Active”.

For `CC[C@H](C)[C@H](NC(=O)[C@H](CCCNC(=N)N)NC(=O)[C@H](CCCNC(=N)N)NC(=O)[C@H](Cc1ccc(O)cc1)NC(=O)[C@H](CCCNC(=N)N)NC(=O)[C@H](CCCNC(=N)N)NC(=O)[C@H](CCCNC(=N)N)NC(=O)[C@H](CCCNC(=N)N)NC(=O)[C@H](CC(=O)O)NC(=O)[C@H](Cc1ccc(O)cc1)NC(=O)[C@@H]1CCCN1C(=O)[C@H](CO)NC(=O)[C@H](CCCNC(=N)N)NC(=O)[C@H](Cc1ccc(O)cc1)NC(=O)[C@H](CCCNC(=N)N)NC(=O)CNC(=O)CCCOCCOCCOCCOCCOCCOCCN)C(=O)N[C@H](C(=O)N[C@@H](CC(=O)O)C(N)=O)[C@@H](C)O` (X1-GRYRSPYDRRRRYRRITD-NH2), the remaining at 24 h [6] was greater than 80%, the inhibition [2] was “Active” and the inhibition [3] was “Active; Compound Showed Weak Inhibitory Activity”. The IC50 [7] was 15.9 nM, the Activity (Rattus norvegicus [8]) was “inactive” and the inhibition [4] was “Active; Compound Showed Minimal Activity”.
